The assay has as its target Mushroom tyrosinase (Agaricus bisporus, UniProt O42713+Q00024+C7FF04+C7FF05). Briefly: Inhibition of mushroom tyrosinase preincubated for 5 mins followed by addition of […] as substrate measured after 30 mins.

Here are results for eight compounds from ChEMBL document CHEMBL4033656, “Organocatalyzed and mechanochemical solvent-free synthesis of novel and functionalized bis-biphenyl substituted thiazolidinones as potent tyrosinase inhibitors: SAR and molecular modeling studies” (Eur J Med Chem, 2017).

Molecules are shown by their SMILES.

For `COc1cc(C2SCC(=O)N2c2ccc(-c3ccc(N4C(=O)CSC4c4ccc(O)c(OC)c4)cc3)cc2)ccc1O` (stereo not drawn), the IC50 came out at 2.41 µM.

On to `O=C1CSC(c2ccccc2)N1c1ccc(-c2ccc(N3C(=O)CSC3c3ccccc3)cc2)cc1` (stereo not drawn), for which the IC50 turned out to be 21.61 µM.

`O=C1CSC(c2ccc(O)cc2)N1c1ccc(-c2ccc(N3C(=O)CSC3c3ccc(O)cc3)cc2)cc1` (stereo not drawn) gave an IC50 of 342.52 µM.

`Cc1cc(-c2ccc(N3C(=O)CSC3c3ccc(N(C)C)cc3)c(C)c2)ccc1N1C(=O)CSC1c1ccc(N(C)C)cc1` (stereo not drawn) had an IC50 of less than 500 µM.

Turning to `Cc1cc(-c2ccc(N3C(=O)CSC3c3ccccc3)c(C)c2)ccc1N1C(=O)CSC1c1ccccc1` (stereo not drawn), the IC50 worked out at 7.71 µM.

The compound `COc1cc(C2SCC(=O)N2c2ccc(-c3ccc(N4C(=O)CSC4c4ccc(O)c(OC)c4)c(C)c3)cc2C)ccc1O` (stereo not drawn) came in with an IC50 of 2.81 µM.

`O=C1CSC(c2ccccc2O)N1c1ccc(-c2ccc(N3C(=O)CSC3c3ccccc3O)cc2)cc1` (stereo not drawn) registered an IC50 of 0.61 µM.

On to `COc1ccc(C2SCC(=O)N2c2ccc(-c3ccc(N4C(=O)CSC4c4ccc(OC)cc4)cc3)cc2)cc1` (stereo not drawn), for which the IC50 turned out to be 4.41 µM.
